Values joined by “and” are separate entries in the source; they are usually repeats but may differ in a detail not shown here. Equal entries are not always repeated.
Legend:
[1] = authorized minimum dosage amount; cited from earlier work
SGLT2 = target: T1, SGLT2 (Homo sapiens, UniProt P31639); settings: cited from earlier work
T1 sequence (P31639 1-672): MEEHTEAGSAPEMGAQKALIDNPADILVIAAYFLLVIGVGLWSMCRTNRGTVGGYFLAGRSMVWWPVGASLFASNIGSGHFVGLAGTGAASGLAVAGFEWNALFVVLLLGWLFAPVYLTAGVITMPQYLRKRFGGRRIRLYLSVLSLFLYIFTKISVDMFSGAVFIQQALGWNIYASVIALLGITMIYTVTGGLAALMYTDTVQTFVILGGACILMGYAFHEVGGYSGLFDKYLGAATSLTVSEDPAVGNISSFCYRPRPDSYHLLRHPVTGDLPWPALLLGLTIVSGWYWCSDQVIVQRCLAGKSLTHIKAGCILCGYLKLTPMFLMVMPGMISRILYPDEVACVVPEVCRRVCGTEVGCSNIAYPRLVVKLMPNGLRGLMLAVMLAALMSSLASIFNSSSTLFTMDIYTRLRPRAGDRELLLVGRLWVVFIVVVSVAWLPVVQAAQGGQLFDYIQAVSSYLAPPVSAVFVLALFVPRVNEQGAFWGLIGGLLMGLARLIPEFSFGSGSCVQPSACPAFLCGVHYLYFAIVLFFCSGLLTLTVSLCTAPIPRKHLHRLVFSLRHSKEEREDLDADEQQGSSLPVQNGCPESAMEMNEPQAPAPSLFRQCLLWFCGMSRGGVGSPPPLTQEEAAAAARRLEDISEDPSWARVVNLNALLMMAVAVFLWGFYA

[2] = system: diabetic retinopathy having macular edema; experiment: Cases of diabetic retinopathy having macular edema, assessed by optical coherence tomography (OCT), HbA1c and vision; assay type: in vivo, human
Procedure: To four cases of diabetic retinopathy having macular edema to which conventional intraocular injection of steroid or anti-VEGF antibody was not effective, the therapeutic agent of the present invention (existing SGLT2 inhibitor) was administered at a normal dosage amount or at a lower dosage amount, and the effect was confirmed. Specifically, for the three cases using dapagliflozin and one case using canagliflozin, the effect was confirmed by assessment using optical coherence tomography (OCT). Person; suffering from type 2 diabetes, accompanied with proliferative retinopathy in both eyes, and macular edema in both eyes. Steroid sub-tenon injection was frequently performed but was treatment-resistant. […], person; suffering from type 2 diabetes, accompanied with proliferative retinopathy in both eyes, and macular edema in both eyes. Steroid sub-tenon injection was performed but was treatment-resistant. […], person; suffering from type 2 diabetes, accompanied with simple diabetic retinopathy in both eyes, and macular edema in right eye. […], person; suffering from type 2 diabetes, accompanied with preproliferative diabetic retinopathy in both eyes, and macular edema in right eye. Steroid intraocular injection was performed to right eye macular edema, but was resistant.

[3] = system: increase of retinal vascular permeability in db/db mouse; experiment: Retinal vascular permeability (retinal albumin amount by western blot) in spontaneous type 2 diabetes model db/db mouse; assay type: in vivo; settings: oral
Procedure: Subsequently, the amelioration effect on diabetic retinal function (amelioration effect on permeability increase which is a representative abnormality of diabetic retinal vessels) by the therapeutic agent of the present invention (existing SGLT2 inhibitor agent) was confirmed by using spontaneous type 2 diabetes model db/db mouse.
Since 8 weeks after birth of spontaneous type 2 diabetes model db/db mouse, a dosage amount (10 mg/kg/day as luseogliflozin) of luseogliflozin hydrate which is an existing SGLT2 inhibitor agent, with which an antihyperglycemic action is confirmed in mouse was orally administered. Two weeks after administration of SGLT2 inhibitor agent, the mouse was euthanized, and all blood vessels were sufficiently refluxed with 10 ml of phosphate buffer solution (PBS), and the eyeballs were extracted. After isolating retina, the albumin amount in the retinal tissues leaked from the blood vessels was measured by western blott method, to assess the vascular permeability increase. The albumin amount in retina was corrected with […], and is shown by % control by using control db/+ mouse as a standard.
Next, similarly as for luseogliflozin, the function improvement on increase of retinal vascular permeability was assessed using canagliflozin. Canagliflozin hydrate which is an existing SGLT2 inhibitor agent was orally administered for 2 weeks, at a dosage amount (3 mg/kg/day as canagliflozin) with which an antihyperglycemic action is confirmed in mouse, and at a low dosage (0.01 mg/kg/day as canagliflozin) not showing an antihyperglycemic action.

[4] = system: spontaneous type 2 diabetes model db/db mouse; experiment: Effects on body weight, feed intake, urine volume and blood sugar in db/db mouse; assay type: in vivo; settings: oral, 2 weeks
Procedure: The above-mentioned low dosage (0.01 mg/kg/day as canagliflozin) not showing an antihyperglycemic action was confirmed by the following method.
[…] Effects on body weight, feed intake, urine volume and blood sugar were confirmed.
FIGS. 6 and 7 show the results of fructosamine level which is an index for fasting blood sugar and average blood sugar levels when administering 3 mg/kg/day and 0.01 mg/kg/day of canagliflozin hydrate.

CCc1ccc(Cc2ccc3c(c2)[C@]2(OC3)O[C@H](CO)[C@@H](O)[C@H](O)[C@H]2O)cc1 [tofogliflozin hydrate]
maximum blood concentration (Cmax) in the minimum dosage amount, relative to that of canagliflozin [1]: approximately 1/10
IC50 level showing the inhibition activity, compared with canagliflozin (SGLT2): similar

OC[C@H]1O[C@@H](c2ccc(F)c(Cc3cc4ccccc4s3)c2)[C@H](O)[C@@H](O)[C@@H]1O [ipragliflozin L-proline]
IC50 level showing the inhibition activity, compared with canagliflozin (SGLT2): similar

OC[C@H]1O[C@@H](c2ccc(Cl)c(Cc3ccc(O[C@H]4CCOC4)cc3)c2)[C@H](O)[C@@H](O)[C@@H]1O [empagliflozin]
maximum blood concentration (Cmax) in the minimum dosage amount, relative to that of canagliflozin [1]: approximately 1/10
IC50 level showing the inhibition activity, compared with canagliflozin (SGLT2): similar

CCOc1ccc(Cc2cc([C@@H]3O[C@H](CO)[C@@H](O)[C@H](O)[C@H]3O)ccc2Cl)cc1 [dapagliflozin propylene glycol hydrate]
HbA1 after administration ([2]; Case 1, 2.5 mg/day as dapagliflozin, 6.7 before administration): 6.6
vision, left eye, after administration ([2]; Case 1, 2.5 mg/day as dapagliflozin, did not change): 1.2
vision, right eye, after administration ([2]; Case 1, 2.5 mg/day as dapagliflozin, from 0.7): 0.8
vision after administration ([2]; Case 3, 2.5 mg/day as dapagliflozin, from 0.15): 0.2
HbA1c after administration ([2]; Case 3, 2.5 mg/day as dapagliflozin, from 8.7): 8.0
vision ([2]; Case 4, 2.5 mg/day as dapagliflozin, did not change due to severe retinopathy): 0.1
HbA1c after administration ([2]; Case 4, 2.5 mg/day as dapagliflozin, from 5.9, no change): 6.1%

Cc1ccc([C@@H]2O[C@H](CO)[C@@H](O)[C@H](O)[C@H]2O)cc1Cc1ccc(-c2ccc(F)cc2)s1 [canagliflozin hydrate]
blood sugar control ([2]; Case 2, 100 mg/day as canagliflozin): no change in blood sugar control
HbA1 after administration ([2]; Case 2, 100 mg/day as canagliflozin, 8.0 before administration, hydrate): 8.4 and 8.1 and 7.8
OCT findings ([2]; Case 2, 100 mg/day as canagliflozin, about 5 months after initiation of administration): decrease of macular retinal thickness, cyst reduction, and significant amelioration of laminar structure
vision, right eye, after administration ([2]; Case 2, 100 mg/day as canagliflozin, from 0.4): 0.5
vision, left eye, after administration ([2]; Case 2, 100 mg/day as canagliflozin, from 0.7): 1.2
increase of retinal albumin amount (retinal vascular permeability) ([3]; 0.01 mg/kg/day as canagliflozin, 2 weeks): significantly ameliorated to the control group level
increase of retinal albumin amount (retinal vascular permeability) ([3]; 3 mg/kg/day as canagliflozin, 2 weeks): significantly ameliorated to the control group level
blood sugar ([4]; 0.001 mg/kg/day): no significant decrease
blood sugar ([4]; 0.01 mg/kg/day, hydrate): no significant blood sugar decrease
blood sugar ([4]; 0.1 mg/kg/day): no significant decrease
fructosamine level which is an index for fasting blood sugar and average blood sugar levels ([4]; 3 mg/kg/day, vs non-administered group (FIGS. 6 and 7)): significantly decreased

CCOc1ccc(Cc2cc([C@@H]3S[C@H](CO)[C@@H](O)[C@H](O)[C@H]3O)c(OC)cc2C)cc1 [luseogliflozin hydrate]
increase of retinal albumin amount (retinal vascular permeability) ([3]; 10 mg/kg/day as luseogliflozin, two weeks): significantly ameliorated to the control group level
maximum blood concentration (Cmax) in the minimum dosage amount, relative to that of canagliflozin [1]: approximately 1/10
IC50 level showing the inhibition activity, compared with canagliflozin (SGLT2): similar
